From patent publication US20240228504A1, “SUBSTITUTED TRICYCLIC AMIDES, ANALOGUES THEREOF, AND METHODS USING SAME” (Arbutus Biopharma Corporation, priority 2020, published 2024) come the findings set out here.

The assay deals with HBV rcDNA in HepDE19 cells. The assay can be described thus: HepDE19 assay with bDNA quantitation of HBV rcDNA. The note with it: Hepatitis B virus, HepDE19, HepDE19 assay, inhibition of rcDNA formation, bDNA quantitation; read-out: DE-19bDNA EC50. The assay is classed as cell-based, hepatitis B virus.
As for `CN(C(=O)c1cc2c(Cl)nc(Cl)cc2[nH]1)[C@@H]1COCc2[nH]c(=O)c3cc(F)c(F)cc3c21` [Compound 410, (S)-4,6-Dichloro-N-(8,9-difluoro-6-oxo-1,4,5,6-tetrahydro-2H-pyrano[3,4-c]isoquinolin-1-yl)-N-methyl-1H-pyrrolo[3,2-c]pyridine-2-carboxamide], the EC50 came to 40 nM.
With `CN(C(=O)c1cc2cc(F)c(F)cc2[nH]1)[C@@H]1COC(F)c2[nH]c(=O)c3cc(F)c(F)cc3c21` (stereo partly drawn) [Compound 411, 5,6-Difluoro-N-methyl-N-((1S)-4,8,9-trifluoro-6-oxo-1,4,5,6-tetrahydro-2H-pyrano[3,4-c]isoquinolin-1-yl)-1H-indole-2-carboxamide], the EC50 is 10 nM.
Turning to `CN(C(=O)c1cnc(C(F)(F)F)c(F)c1)[C@@H]1COCc2[nH]c(=O)c3cc(F)c(F)cc3c21` [Compound 412, (S)-N-(8,9-Difluoro-6-oxo-1,4,5,6-tetrahydro-2H-pyrano[3,4-c]isoquinolin-1-yl)-5-fluoro-N-methyl-6-(trifluoromethyl)nicotinamide], the EC50 was 30 nM.
On to `CN(C(=O)c1ccc2c(c1)c(Cl)nn2C)[C@@H]1COCc2[nH]c(=O)c3cc(F)c(F)cc3c21` [Compound 415, (S)-3-Chloro-N-(8,9-difluoro-6-oxo-1,4,5,6-tetrahydro-2H-pyrano[3,4-c]isoquinolin-1-yl)-N,1-dimethyl-1H-indazole-5-carboxamide], for which the EC50 was determined as 60 nM.
For `CCn1nc(Cl)c2cc(C(=O)N(C)[C@@H]3COCc4[nH]c(=O)c5cc(F)c(F)cc5c43)ccc21` [Compound 416, (S)-3-Chloro-N-(8,9-difluoro-6-oxo-1,4,5,6-tetrahydro-2H-pyrano[3,4-c]isoquinolin-1-yl)-1-ethyl-N-methyl-1H-indazole-5-carboxamide], the EC50 is 80 nM.
As to `Cc1nn(C(F)F)c2ccc(C(=O)N(C)[C@@H]3COCc4[nH]c(=O)c5cc(F)c(F)cc5c43)cc12` [Compound 417, (S)-N-(8,9-Difluoro-6-oxo-1,4,5,6-tetrahydro-2H-pyrano[3,4-c]isoquinolin-1-yl)-1-(difluoromethyl)-N,3-dimethyl-1H-indazole-5-carboxamide], the EC50 worked out at 20 nM.
The figure for `CN(C(=O)c1ccc2ocnc2c1)[C@@H]1COCc2[nH]c(=O)c3cc(F)c(F)cc3c21` [Compound 426, (S)-N-(8,9-Difluoro-6-oxo-1,4,5,6-tetrahydro-2H-pyrano[3,4-c]isoquinolin-1-yl)-N-methylbenzo[d]oxazole-5-carboxamide] is 90 nM; for `CN(C(=O)c1ccc2scnc2c1)[C@@H]1COCc2[nH]c(=O)c3cc(F)c(F)cc3c21` [Compound 427, (S)-N-(8,9-Difluoro-6-oxo-1,4,5,6-tetrahydro-2H-pyrano[3,4-c]isoquinolin-1-yl)-N-methylbenzo[d]thiazole-5-carboxamide] it is 170 nM; for `CN(C(=O)c1ccc2ncsc2c1)[C@@H]1COCc2[nH]c(=O)c3cc(F)c(F)cc3c21` [Compound 428, (S)-N-(8,9-Difluoro-6-oxo-1,4,5,6-tetrahydro-2H-pyrano[3,4-c]isoquinolin-1-yl)-N-methylbenzo[d]thiazole-6-carboxamide] it is 340 nM.
`CN(C(=O)c1ccc2[nH]ncc2c1)[C@@H]1COCc2[nH]c(=O)c3cc(F)c(F)cc3c21` [Compound 429, (S)-N-(8,9-Difluoro-6-oxo-1,4,5,6-tetrahydro-2H-pyrano[3,4-c]isoquinolin-1-yl)-N-methyl-1H-indazole-5-carboxamide]: the EC50 is 980 nM.
`CN(C(=O)c1ccc2c(c1)c(C(F)F)nn2C)[C@@H]1COCc2[nH]c(=O)c3cc(F)c(F)cc3c21` [Compound 436, (S)-N-(8,9-Difluoro-6-oxo-1,4,5,6-tetrahydro-2H-pyrano[3,4-c]isoquinolin-1-yl)-3-(difluoromethyl)-N,1-dimethyl-1H-indazole-5-carboxamide]: the EC50 was found to be 100 nM.
Turning to `CN(C(=O)c1ccc2c(cnn2C(F)F)c1)[C@@H]1COCc2[nH]c(=O)c3cc(F)c(F)cc3c21` [Compound 437, (S)-N-(8,9-Difluoro-6-oxo-1,4,5,6-tetrahydro-2H-pyrano[3,4-c]isoquinolin-1-yl)-1-(difluoromethyl)-N-methyl-1H-indazole-5-carboxamide], the EC50 was 5 nM.
Regarding `CN(C(=O)c1ccc2cn[nH]c2c1)[C@@H]1COCc2[nH]c(=O)c3cc(F)c(F)cc3c21` [Compound 450, (S)-N-(8,9-Difluoro-6-oxo-1,4,5,6-tetrahydro-2H-pyrano[3,4-c]isoquinolin-1-yl)-N-methyl-1H-indazole-6-carboxamide], the EC50 was 110 nM.
In the case of `CN(C(=O)c1ccc2nc[nH]c2c1)[C@@H]1COCc2[nH]c(=O)c3cc(F)c(F)cc3c21` [Compound 451, (S)-N-(8,9-difluoro-6-oxo-1,4,5,6-tetrahydro-2H-pyrano[3,4-c]isoquinolin-1-yl)-N-methyl-1H-benzo[d]imidazole-6-carboxamide], the EC50 came to 12300 nM.
For the compound `CN(C(=O)c1cc2sc(C#N)cc2[nH]1)[C@@H]1COCc2[nH]c(=O)c3cc(F)c(F)cc3c21` [Compound 468], the EC50 came to 5 nM.
`CN(C(=O)c1cc2sc(Cl)cc2[nH]1)[C@@H]1COC(=O)c2[nH]c(=O)c3cc(F)c(F)cc3c21` [Compound 477, (S)-2-Chloro-N-(8,9-difluoro-4,6-dioxo-1,4,5,6-tetrahydro-2H-pyrano[3,4-c]isoquinolin-1-yl)-N-methyl-4H-thieno[3,2-b]pyrrole-5-carboxamide]: the EC50 came out at 20 nM.
Take `CN(C(=O)c1cc2cc(F)c(C(F)F)cc2[nH]1)[C@@H]1COC(=O)c2[nH]c(=O)c3cc(F)c(F)cc3c21` [Compound 478, (S)-N-(8,9-Difluoro-4,6-dioxo-1,4,5,6-tetrahydro-2H-pyrano[3,4-c]isoquinolin-1-yl)-6-(difluoromethyl)-5-fluoro-N-methyl-1H-indole-2-carboxamide]: the EC50 turned out to be 10 nM.
Turning to `CN(C(=O)c1cc2cc(F)c(C(F)F)cc2[nH]1)[C@@H]1CCCc2[nH]c(=O)c3cc(F)ccc3c21` [Compound 479, (R)-6-(difluoromethyl)-5-fluoro-N-(8-fluoro-6-oxo-1,2,3,4,5,6-hexahydrophenanthridin-1-yl)-N-methyl-1H-indole-2-carboxamide], the EC50 was found to be 40 nM.
Consider `CN(C(=O)c1cc2cc(F)ccc2[nH]1)[C@@H]1CCCc2[nH]c(=O)c3cc(F)c(F)cc3c21` [Compound 480, (R)-N-(8,9-difluoro-6-oxo-1,2,3,4,5,6-hexahydrophenanthridin-1-yl)-5-fluoro-N-methyl-1H-indole-2-carboxamide], for which the EC50 stood at 10 nM.
The figure for `CN(C(=O)c1cc2cc(F)c(F)cc2[nH]1)[C@@H]1CCCc2[nH]c(=O)c3cc(F)c(F)cc3c21` [Compound 481, (R)-N-(8,9-difluoro-6-oxo-1,2,3,4,5,6-hexahydrophenanthridin-1-yl)-5,6-difluoro-N-methyl-1H-indole-2-carboxamide] is 10 nM; for `CN(C(=O)c1cc2cc(F)c(C(F)F)cc2[nH]1)[C@@H]1CCCc2[nH]c(=O)c3cc(F)c(F)cc3c21` [Compound 482, (R)-N-(8,9-difluoro-6-oxo-1,2,3,4,5,6-hexahydrophenanthridin-1-yl)-6-(difluoromethyl)-5-fluoro-N-methyl-1H-indole-2-carboxamide] it is 10 nM; for `CN(C(=O)c1cc2c(C(F)F)cc(F)cc2[nH]1)[C@@H]1CCCc2[nH]c(=O)c3cc(F)c(F)cc3c21` [Compound 483, (R)-N-(8,9-difluoro-6-oxo-1,2,3,4,5,6-hexahydrophenanthridin-1-yl)-4-(difluoromethyl)-6-fluoro-N-methyl-1H-indole-2-carboxamide] it is 10 nM.
On to `Cc1cccc2[nH]c(C(=O)N(C)[C@@H]3CCCc4[nH]c(=O)c5cc(F)c(F)cc5c43)cc12` [Compound 484, (R)-N-(8,9-difluoro-6-oxo-1,2,3,4,5,6-hexahydrophenanthridin-1-yl)-N,4-dimethyl-1H-indole-2-carboxamide], for which the EC50 was determined as 10 nM.
The figure for `Cc1cc(F)cc2[nH]c(C(=O)N(C)[C@@H]3CCCc4[nH]c(=O)c5cc(F)c(F)cc5c43)cc12` [Compound 485, (R)-N-(8,9-difluoro-6-oxo-1,2,3,4,5,6-hexahydrophenanthridin-1-yl)-6-fluoro-N,4-dimethyl-1H-indole-2-carboxamide] is 10 nM; for `CN(Cc1ccc(Br)c(F)c1)[C@@H]1COCc2[nH]c(=O)c3cc(F)c(F)cc3c21` [Compound 486, (S)-1-((4-bromo-3-fluorobenzyl)(methyl)amino)-8,9-difluoro-1,5-dihydro-2H-pyrano[3,4-c]isoquinolin-6(4H)-one] it is 8280 nM.
Regarding `CN(C(=O)c1cc2sc(Cl)cc2[nH]1)[C@@H]1COC(O)c2[nH]c(=O)c3cc(F)c(F)cc3c21` (stereo partly drawn) [Compound 487, 2-Chloro-N-((1S)-8,9-difluoro-4-hydroxy-6-oxo-1,4,5,6-tetrahydro-2H-pyrano[3,4-c]isoquinolin-1-yl)-N-methyl-4H-thieno[3,2-b]pyrrole-5-carboxamide], the EC50 stood at 20 nM.
As for `CN(C(=O)c1cc2cc(F)c(C(F)F)cc2[nH]1)[C@@H]1COC(O)c2[nH]c(=O)c3cc(F)c(F)cc3c21` (stereo partly drawn) [Compound 488, N-((1S)-8,9-Difluoro-4-hydroxy-6-oxo-1,4,5,6-tetrahydro-2H-pyrano[3,4-c]isoquinolin-1-yl)-6-(difluoromethyl)-5-fluoro-N-methyl-1H-indole-2-carboxamide], the EC50 turned out to be 10 nM.
Turning to `CN(C(=O)c1cc2cc(F)ccc2[nH]1)[C@@H]1CCCc2[nH]c(=O)c3cc(F)ccc3c21` [Compound 489, (R)-5-Fluoro-N-(8-fluoro-6-oxo-1,2,3,4,5,6-hexahydrophenanthridin-1-yl)-N-methyl-11H-indole-2-carboxamide], the EC50 turned out to be 10 nM.
For the compound `CN(C(=O)c1cc2cc(F)c(F)cc2[nH]1)[C@@H]1CCCc2[nH]c(=O)c3cc(F)ccc3c21` [Compound 490, (R)-5,6-difluoro-N-(8-fluoro-6-oxo-1,2,3,4,5,6-hexahydrophenanthridin-1-yl)-N-methyl-1H-indole-2-carboxamide], the EC50 turned out to be 20 nM.
